Test results: BigSolDB 2.1

O=C(O)c1ccccc1
solubility (mole fraction)
Settings | 283.15 K | 288.15 K | 293.15 K | 298.15 K | 303.15 K | 308.15 K | 313.15 K | 318.15 K | 323.15 K | 328.15 K
in 2-pentanone | 0.163 | 0.18 | 0.196 | 0.215 | 0.234 | 0.256 | 0.279 | 0.315 | 0.349 | 0.388
in diacetone alcohol | 0.234 | 0.251 | 0.269 | 0.287 | 0.306 | 0.315 | 0.336 | 0.367 | 0.396 | 0.426
in isooctane | 0.002 | 0.003 | 0.005 | 0.007 | 0.01 | 0.013 | 0.018 | 0.023 | 0.031 | 0.04
in methyl acetate | 0.125 | 0.152 | 0.175 | 0.198 | 0.213 | 0.237 | 0.26 | 0.282 | 0.318 | 0.348
in n-pentyl acetate | 0.091 | 0.112 | 0.133 | 0.159 | 0.179 | 0.198 | 0.226 | 0.252 | 0.282 | 0.316
in tributyl phosphate | 0.492 | 0.507 | 0.522 | 0.53 | 0.543 | 0.553 | 0.563 | 0.581 | 0.6 | 0.631
